Data as given in patent US5162317A, “Pyridinium salt and pharmacological composition containing the same” (Esai Co., Ltd., priority 1988, dated 1992).

Biological target: T1, H^+ --K^+ ATPase (Sus scrofa, UniProt P19156)
T1 construct: prepared from the fundus ventriculi gland of fresh swine gastric mucosa; from tissue; host or cells: swine gastric mucosa, fundus ventriculi gland (modified method of Saccomani et al. 1977)
Experiment: Inhibition effect on H^+ --K^+ ATPase activity
Format: biochemical
Conditions: H^+ --K^+ ATPase from fresh swine gastric mucosa, 10 μg protein/ml, pH 7.40, 37° C., 30 minutes incubation; compound dissolved in methanol
Description: Inhibition effect on H^+ --K^+ ATPase activity
(1) Preparation of H^+ --K+ATPase
The enzyme H^+ --K+ATPase was prepared from the fundus ventriculi gland of fresh swine gastric mucosa by a modified method of Saccomani et al. (Biochem. and Biophys. Acta., 464, 313 (1977)).
(2) Determination of H^+ --K^+ ATPase activity
(§1) Various concentrations of the compounds of the present invention were incubated together with 10 μg protein/ml of the H^+ --K^+ ATPase in a 40 mM Tris HCl buffer (pH 7.40) at 37° C. for 30 minutes. Then 15 mM KCl was added thereto. Ten minutes thereafter, an ATPase reaction between 3 mM of MgCl2 and ATP was started. Ten minutes thereafter, the liberated inorganic phosphoric acid was determined according to Yoda and Hokin's method (cf. Biochem. Biophys. Res., Com., 40, 880 (1970)).
The test compound was 3-(3-methoxy)propoxy-4-methyl-5H-pyrido[1'.2':4.5][1.2.4.]thiazino[2.3-a]- benzimidazol-13-ium tetrafluoroborate (the compound of Example 1). This compound was dissolved in methanol prior to the test.
The inhibition effect (%) was calculated by dividing the difference between the data of the test group and that of the control group, to which solvent was added exclusively, by the data of the control group.
(1) Preparation of H^+ --K^+ ATPase
The enzyme H^+ --K^+ ATPase was prepared from the fundus ventriculi gland of fresh swine gastric mucosa by a modified method of Saccomani et al. (Biochem. and Biophys. Acta., 464, 313 (1977)).
as §1, with “H+--K^+” for “H^+ --K^+”, “MgCl” for “MgCl2”
The test compound was 2-[2-(ethyldithiomethyl)4-(3-methoxy)propoxy-3-methyl-1-pyridinio)benzimidazolide (the compound of Example 1). […]

T1 sequence (P19156 2-1034 limits assumed): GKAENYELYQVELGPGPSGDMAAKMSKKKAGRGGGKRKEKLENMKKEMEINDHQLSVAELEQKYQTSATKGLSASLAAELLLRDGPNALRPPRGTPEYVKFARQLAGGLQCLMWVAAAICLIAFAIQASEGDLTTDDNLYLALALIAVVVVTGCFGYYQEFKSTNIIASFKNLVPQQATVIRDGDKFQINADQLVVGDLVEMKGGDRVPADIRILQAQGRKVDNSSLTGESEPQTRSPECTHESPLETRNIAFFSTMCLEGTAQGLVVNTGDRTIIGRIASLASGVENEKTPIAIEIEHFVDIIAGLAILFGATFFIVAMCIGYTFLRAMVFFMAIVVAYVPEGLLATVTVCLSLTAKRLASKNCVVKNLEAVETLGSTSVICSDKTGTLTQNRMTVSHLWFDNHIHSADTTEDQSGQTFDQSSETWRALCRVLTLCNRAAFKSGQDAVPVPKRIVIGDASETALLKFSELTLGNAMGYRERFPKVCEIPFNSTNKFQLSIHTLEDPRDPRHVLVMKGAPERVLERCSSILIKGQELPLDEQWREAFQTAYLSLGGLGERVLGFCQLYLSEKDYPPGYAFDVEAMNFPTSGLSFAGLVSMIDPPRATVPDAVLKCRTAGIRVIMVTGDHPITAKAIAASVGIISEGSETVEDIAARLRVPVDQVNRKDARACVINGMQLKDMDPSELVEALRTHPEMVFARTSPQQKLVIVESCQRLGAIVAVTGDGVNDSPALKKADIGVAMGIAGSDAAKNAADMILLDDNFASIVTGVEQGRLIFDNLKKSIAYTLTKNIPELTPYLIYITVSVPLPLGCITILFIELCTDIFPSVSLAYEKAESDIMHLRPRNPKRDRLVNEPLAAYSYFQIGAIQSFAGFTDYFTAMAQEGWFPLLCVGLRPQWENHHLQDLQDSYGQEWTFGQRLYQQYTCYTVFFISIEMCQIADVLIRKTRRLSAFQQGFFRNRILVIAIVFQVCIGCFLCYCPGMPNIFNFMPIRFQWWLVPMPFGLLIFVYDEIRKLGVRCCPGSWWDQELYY
T1 sequence (P18434 whole entry partner): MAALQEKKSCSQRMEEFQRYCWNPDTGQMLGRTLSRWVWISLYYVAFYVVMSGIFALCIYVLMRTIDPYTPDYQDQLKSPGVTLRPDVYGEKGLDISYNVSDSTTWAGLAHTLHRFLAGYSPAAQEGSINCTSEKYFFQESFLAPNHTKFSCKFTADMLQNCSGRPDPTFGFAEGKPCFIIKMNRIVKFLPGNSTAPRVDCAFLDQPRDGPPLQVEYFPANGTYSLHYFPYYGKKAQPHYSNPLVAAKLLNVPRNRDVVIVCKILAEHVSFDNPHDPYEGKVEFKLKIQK

Row | SMILES | IC50
1 | COCCCOc1cc[n+]2c(c1C)CSn1c-2nc2ccccc21 [Example 1, 3-(3-Methoxy)propoxy-4-methyl-5H-pyrido[1'.2':4.5][1.2.4]thiaziano[2.3-a]benzimidazol-13-ium tetrafluoroborate] | 0.44 µM
2 | CCSSCc1c(C)c(OCCCOC)cc[n+]1-c1nc2ccccc2[n-]1 [Example 12, 2-[2-(Ethyldithiomethyl)-4-(3-methoxy)propoxy-3-methyl-1pyridinio]benzimidazolide] | > 10 µM
3 | COc1ccc2[nH]c([S+]([O-])Cc3ncc(C)c(OC)c3C)nc2c1 (stereo not drawn) [Omeprazole, reference compound] | 11 µM
